According to paper PMC3389674, “Comparison of Soluble Guanylate Cyclase Stimulators and Activators in Models of Cardiovascular Disease Associated with Oxidative Stress” (Frontiers in Pharmacology, 2012):

Biological target: T1, sGC (Rattus norvegicus, UniProt P20595)
T1 construct: in rat aortic smooth muscle cells; endogenous in cells; host or cells: primary rat aortic smooth muscle cells
T1 sequence (P20595 1-619): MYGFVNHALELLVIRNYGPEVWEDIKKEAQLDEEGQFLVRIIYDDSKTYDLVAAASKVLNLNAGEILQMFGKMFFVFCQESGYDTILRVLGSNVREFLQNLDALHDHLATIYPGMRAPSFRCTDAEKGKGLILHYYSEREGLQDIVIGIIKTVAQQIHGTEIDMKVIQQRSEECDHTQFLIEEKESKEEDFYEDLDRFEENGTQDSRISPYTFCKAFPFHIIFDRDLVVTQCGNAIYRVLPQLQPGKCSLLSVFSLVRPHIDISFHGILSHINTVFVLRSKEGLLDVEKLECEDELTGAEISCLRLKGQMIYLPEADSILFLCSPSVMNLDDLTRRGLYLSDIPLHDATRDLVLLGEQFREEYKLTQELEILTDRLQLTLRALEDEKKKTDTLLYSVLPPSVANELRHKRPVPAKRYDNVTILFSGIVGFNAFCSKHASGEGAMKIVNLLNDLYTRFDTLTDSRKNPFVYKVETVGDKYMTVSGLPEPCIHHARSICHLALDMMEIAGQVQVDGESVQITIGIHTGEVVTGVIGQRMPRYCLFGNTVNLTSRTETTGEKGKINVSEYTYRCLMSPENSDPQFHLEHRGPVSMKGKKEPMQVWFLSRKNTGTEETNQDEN
T1 sequence (P19686 1-690 partner): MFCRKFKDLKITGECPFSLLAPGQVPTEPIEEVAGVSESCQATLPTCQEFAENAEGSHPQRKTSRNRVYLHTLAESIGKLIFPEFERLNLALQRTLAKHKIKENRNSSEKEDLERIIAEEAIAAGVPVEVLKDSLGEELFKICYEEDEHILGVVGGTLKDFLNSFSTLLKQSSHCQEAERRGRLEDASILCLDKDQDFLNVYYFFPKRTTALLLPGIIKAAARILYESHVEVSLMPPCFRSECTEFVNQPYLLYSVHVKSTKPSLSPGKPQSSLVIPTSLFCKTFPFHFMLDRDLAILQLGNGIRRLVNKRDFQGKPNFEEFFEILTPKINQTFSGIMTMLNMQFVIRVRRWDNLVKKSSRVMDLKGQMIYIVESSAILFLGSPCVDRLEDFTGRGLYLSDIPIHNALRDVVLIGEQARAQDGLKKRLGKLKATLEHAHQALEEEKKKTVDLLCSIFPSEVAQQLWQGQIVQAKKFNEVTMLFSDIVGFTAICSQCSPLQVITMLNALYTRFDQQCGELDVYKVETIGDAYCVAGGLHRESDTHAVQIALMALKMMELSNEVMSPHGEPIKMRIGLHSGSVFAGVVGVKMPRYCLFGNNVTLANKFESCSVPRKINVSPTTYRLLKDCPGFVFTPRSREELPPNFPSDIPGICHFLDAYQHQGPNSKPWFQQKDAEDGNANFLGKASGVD
Test: P-VASP formation in rat aortic smooth muscle cells
Type: cell-based
Experimental: The potency, efficacy, and mechanism of action of the sGC modulators GSK2181236A and BAY 60-4552 were assessed by measuring phosphorylation of the protein kinase G (PKG) substrate […] (VASP) in rat aortic smooth muscle cells. […] Dimethylsulfoxide (DMSO) vehicle or varying concentrations of GSK2181236A (2 pM to 1 μM) or BAY 60-4552 (15 nM to 100 μM) were then added. Following a 30 min incubation at 37°C, media was aspirated and the cells were rinsed with phosphate-buffered saline (PBS) and fixed with 4% formaldehyde in PBS by incubating at room temperature for 20 min. Cells were then washed with PBS and permeabilized for 10 min using 0.1% triton X-100 in PBS. Following PBS rinsing, the cells were blocked for 90 min at room temperature with Odyssey Blocking Buffer (LI-COR, Cambridge, UK). The buffer was aspirated and the cells were treated overnight at 4°C with primary antibody [(pSer^239) VASP, rabbit polyclonal Ab, Cell Signaling Technology, Danvers, MA, USA] diluted 1:500 in Odyssey Blocking Buffer. Following three washes with 0.05% Tween 20, the cells were treated for 1 h at room temperature with secondary antibody (IRDye® 800CW Donkey Anti-Rabbit IgG, LI-COR) diluted 1:2500 in Odyssey Blocking Buffer with 0.05% Tween 20. Following two washes with PBS, infrared fluorescence was measured using an Odyssey Infrared Imaging System (LI-COR).

SMILES | EC50 (Control (no ODQ)) | Emax, P-VASP formation (Control (no ODQ)) | rightward-shift of P-VASP concentration-response curve by ODQ (ODQ 10 μM vs control) | suppression of P-VASP maximal response by ODQ (trend) (ODQ 10 μM vs control) | EC50 (ODQ (10 μM) pre-treatment) | Emax, P-VASP formation (ODQ (10 μM) pre-treatment) | leftward-shift of P-VASP concentration-response curve by ODQ (ODQ 10 μM vs control) | Emax (ODQ 10 μM vs control, read-out: augmentation of P-VASP maximal response by ODQ)
COC(=O)Nc1c(N)nc(-c2nn(Cc3ccccc3F)c3ncccc23)nc1N [BAY 60-4552] | 353 ± 89 nM | 388 ± 39 % DMSO | 9.8 fold | 7% | 3260 nM | 362 ± 24 % DMSO | – | –
Cc1cc(-c2ccc(OC(F)(F)F)cc2)ccc1COc1ccccc1-c1cccc(-n2ncc(C(=O)O)c2C(F)(F)F)n1 [GSK2181236A, 1-(6-{2-[({3-methyl-4′-[(trifluoromethyl)oxy]-4-biphenylyl}methyl)oxy]phenyl}-2-pyridinyl)-5-(trifluoromethyl)-1H-pyrazole-4-carboxylic acid] | 12.7 ± 4.7 nM | 379 ± 26 % DMSO | – | – | 2.7 ± 0.6 nM | 502 ± 26 % DMSO | 4.7 fold | 32%
